{"source": "patent US11098056B2", "about": "“UDP glycosyltransferase inhibitors and methods of use” (GENZYME CORPORATION, priority 2018, dated 2021)", "key": {"[1]": {"molecular_target": "T1, UGT8 (Mus musculus, UniProt Q64676)", "T1 construct": "Groups of 5 male C57Bl/6 mice, 6-9 wks of age (Charles River Laboratories); tissue Charles River Laboratories; host or cells: mouse kidney (adult C57Bl/6) and mid-/hind brain (neonatal P14-P21 mice)", "T1 sequence (Q64676 21-541)": "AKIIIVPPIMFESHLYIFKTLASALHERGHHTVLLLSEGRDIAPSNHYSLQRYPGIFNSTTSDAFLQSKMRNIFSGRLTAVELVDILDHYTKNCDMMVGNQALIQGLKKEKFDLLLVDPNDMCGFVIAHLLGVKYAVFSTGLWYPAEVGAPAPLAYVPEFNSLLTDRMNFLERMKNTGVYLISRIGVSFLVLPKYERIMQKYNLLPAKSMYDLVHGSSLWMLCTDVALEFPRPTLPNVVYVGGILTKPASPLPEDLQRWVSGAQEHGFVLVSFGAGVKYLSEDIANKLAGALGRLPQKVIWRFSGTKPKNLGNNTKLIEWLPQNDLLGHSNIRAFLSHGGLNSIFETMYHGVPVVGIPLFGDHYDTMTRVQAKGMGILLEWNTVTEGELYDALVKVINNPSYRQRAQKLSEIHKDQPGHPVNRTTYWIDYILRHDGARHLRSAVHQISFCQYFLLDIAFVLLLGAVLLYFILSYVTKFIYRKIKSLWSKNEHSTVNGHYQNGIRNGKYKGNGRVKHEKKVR", "assay": "Acute in vivo target engagement in mouse kidney: inhibition of de novo GalCer and SFT synthesis (13C-Gal incorporation)", "settings": "5 hr", "protocol": "In vivo target engagement was initially assessed in an adult mouse kidney model assessing de novo synthesis inhibition. This model was selected because the high rate of GalCer and SFT synthesis and turnover in kidney facilitated development of an acute one-day model assessing the effect of a single administration of compound at different doses. Inhibition of de novo synthesis was determined by measuring the amount of 13C6 galactose (13C-Gal; CIL, cat #CLM-1570-pk) incorporated into GalCer and SFT.\nGroups of 5 male C57Bl/6 mice, 6-9 wks of age (Charles River Laboratories) were maintained in an ALAAC-accredited vivarium with food and water ad libitum and were allowed to acclimate one week before initiating studies. Three to 5 dose groups received test article formulated in a clinically-acceptable formulation, administered by oral gavage; the control group received vehicle alone. One hr after administration of test article, animals received an intraperitoneal (i.p.) injection of 13C-Gal (3 g/kg); 5 hr after administration of test article, animals were euthanized and a kidney was removed and divided into two longitudinal samples that were snap-frozen and stored at −80° C. until processing for test article tissue exposure and lipid analysis (GalCer and SFT). Typically, brain and plasma samples were also collected for test article exposure.\nMass Spectrometer Analysis of SFT\nQuantitative analysis of sphingolipids (SLs) was performed using liquid chromatography with tandem mass spectrometry analysis (LC-MS/MS). Briefly, to extract glucosylceramide (GlcCer), galactosylceramide (GalCer), and sulfatide (ST), an aliquot of 10 μL of mouse tissue homogenate (100 mg/ml in water) was mixed with 1 mL of extraction solution (0.2% Formic Acid; 5 mM Ammonium formate in (50:50) Methanol:Acetonitrile (v/v) with internal standards (IS)). C17-ST and D35 labeled C18-GalCer were used for IS. The mixtures were vortexed and centrifuged. The resulting supernatants were transferred to HPLC vials for LC-MS/MS analysis. GlcCer and GalCer were separated using a Waters Acquity UPLC and Atlantis HILIC Silica column (2.1 mm×150 mm, […], Waters Corp., Milford, Mass.) and analyzed by an API 5000 triple quadrupole mass spectrometer in MRM mode (Applied Biosystems, Foster City, Calif.). ST were analyzed using a Waters Acquity UPLC and BEH C18 column (2.1 mm×50 mm, […], Waters Corp., Milford, Mass.) and analyzed by an API 6500 triple quadrupole mass spectrometer in MRM mode (Applied Biosystems, Foster City, Calif.)."}, "[2]": {"molecular_target": "T2, UGT8 (Homo sapiens, UniProt Q16880)", "T2 construct": "host or cells: OE19 cells", "T2 sequence (Q16880 21-541)": "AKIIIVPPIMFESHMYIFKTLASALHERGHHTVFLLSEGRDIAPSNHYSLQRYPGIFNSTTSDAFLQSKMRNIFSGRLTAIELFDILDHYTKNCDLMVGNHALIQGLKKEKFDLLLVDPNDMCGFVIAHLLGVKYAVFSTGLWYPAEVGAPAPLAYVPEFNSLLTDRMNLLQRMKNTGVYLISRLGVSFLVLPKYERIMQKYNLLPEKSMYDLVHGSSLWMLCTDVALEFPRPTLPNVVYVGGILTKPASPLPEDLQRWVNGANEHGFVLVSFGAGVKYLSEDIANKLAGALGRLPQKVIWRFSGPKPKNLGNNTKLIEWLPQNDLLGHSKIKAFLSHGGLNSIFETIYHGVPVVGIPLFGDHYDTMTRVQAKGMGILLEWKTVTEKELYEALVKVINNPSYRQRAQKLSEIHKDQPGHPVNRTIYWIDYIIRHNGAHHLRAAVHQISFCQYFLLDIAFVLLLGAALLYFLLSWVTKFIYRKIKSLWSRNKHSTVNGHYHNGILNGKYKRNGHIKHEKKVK", "assay": "In vitro sulfatide (SFT) synthesis inhibition in OE19 cells, LC-MS/MS readout", "format": "cell-based", "settings": "72 hr, sulfatide by LC-MS/MS, read-out: Potency range (IC50, In-vitro SFT)", "in_short": "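OE19 cells, 2,500/well, exposed to compound dose-downs in triplicate for 72 hr at 37° C (screening at 10 μM final). Sulfatide quantified by LC-MS/MS (C8 UPLC, isocratic, negative-ion MRM) with C17 SFT internal standard; IC50 from concentration-response curves.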"}}, "note": "Counter-ions that a name gives are not always drawn."}
{"smiles": "CNC(=O)c1csc2c(C(F)(F)F)cc(N3CCC(OC(=O)NCC4CC4)CC3)nc12", "note": "[Example 475, 1-(3-(Methylcarbamoyl)-7-(trifluoromethyl)thieno[3,2-b]pyridin-5-yl)piperidin-4-yl (cyclopropylmethyl)carbamate trifluoroacetate]", "values": [{"measurement": "kidney GalCer % inh", "setting": "[1]; single oral dose 3 mg/kg", "value": "C (C < 40%)"}, {"measurement": "kidney GalCer % inh", "setting": "[1]; single oral dose 10 mg/kg", "value": "B (40% < B < 80%)"}, {"measurement": "kidney GalCer % inh", "setting": "[1]; single oral dose 50 mg/kg", "value": "B (40% < B < 80%)"}]}
{"smiles": "CNC(=O)c1csc2c(C(F)(F)F)cc(N3CC[C@H](OC(=O)NC(C)C)[C@@H](F)C3)nc12", "note": "[Example 496, (3S,4S)-3-Fluoro-1-(3-(methylcarbamoyl)-7-(trifluoromethyl)thieno[3,2-b]pyridin-5-yl)piperidin-4-yl isopropylcarbamate]", "values": [{"measurement": "kidney GalCer % inh", "setting": "[1]; single oral dose 10 mg/kg", "value": "A, A, A (A > 80%)"}, {"measurement": "kidney Sulfatide % inh", "setting": "[1]; single oral dose 10 mg/kg", "value": "A, A, A (A > 80%)"}, {"measurement": "kidney GalCer % inh", "setting": "[1]; single oral dose 30 mg/kg", "value": "A, A, A (A > 80%)"}, {"measurement": "kidney Sulfatide % inh", "setting": "[1]; single oral dose 30 mg/kg", "value": "A, A, A (A > 80%)"}, {"measurement": "kidney GalCer % inh", "setting": "[1]; single oral dose 100 mg/kg", "value": "A, A, A (A > 80%)"}, {"measurement": "kidney Sulfatide % inh", "setting": "[1]; single oral dose 100 mg/kg", "value": "A, A, A (A > 80%)"}, {"measurement": "IC50", "setting": "[2]", "value": "< 100", "unit": "nM"}]}
{"smiles": "CNC(=O)c1csc2c(C(F)(F)F)cc(N3CCC(OC(=O)N[C@@H](C)CF)CC3)nc12", "note": "[Example 693, [1-[3-(Methylcarbamoyl)-7-(trifluoromethyl)thieno[3,2-b]pyridin-5-yl]-4-piperidyl] N-[(1S)-2-fluoro-1-methyl-ethyl]carbamate]", "values": [{"measurement": "kidney GalCer % inh", "setting": "[1]; single oral dose 1 mg/kg", "value": "C (C < 40%)"}, {"measurement": "kidney Sulfatide % inh", "setting": "[1]; single oral dose 1 mg/kg", "value": "C (C < 40%)"}, {"measurement": "kidney GalCer % inh", "setting": "[1]; single oral dose 3 mg/kg", "value": "C (C < 40%)"}, {"measurement": "kidney Sulfatide % inh", "setting": "[1]; single oral dose 3 mg/kg", "value": "C (C < 40%)"}, {"measurement": "kidney GalCer % inh", "setting": "[1]; single oral dose 10 mg/kg", "value": "B (40% < B < 80%)"}, {"measurement": "kidney Sulfatide % inh", "setting": "[1]; single oral dose 10 mg/kg", "value": "A (A > 80%)"}, {"measurement": "IC50", "setting": "[2]", "value": "< 100", "unit": "nM"}]}
{"smiles": "CNC(=O)c1csc2c(C(F)(F)F)cc(N3CCC(OC(=O)N4C[C@H](N(C)C)[C@@H]4C)CC3)nc12", "note": "[Example 793, 1-(3-(Methylcarbamoyl)-7-(trifluoromethyl)thieno[3,2-b]pyridin-5-yl)piperidin-4-yl (2S,3S)-3-(dimethylamino)-2-methylazetidine-1-carboxylate]", "values": [{"measurement": "IC50", "setting": "[2]", "value": "100 to 1000", "unit": "nM"}]}
{"smiles": "CNC(=O)c1csc2c(C(F)(F)F)cc(N3CCC(OC(=O)N4C[C@@H](N(C)C)[C@@H]4C)CC3)nc12", "note": "[Example 794, 1-(3-(Methylcarbamoyl)-7-(trifluoromethyl)thieno[3,2-b]pyridin-5-yl)piperidin-4-yl (2S,3R)-3-(dimethylamino)-2-methylazetidine-1-carboxylate]", "values": [{"measurement": "IC50", "setting": "[2]", "value": "< 100", "unit": "nM"}]}
{"smiles": "CNC(=O)c1csc2c(C(F)(F)F)cc(N3CCC(OC(=O)N4CC5(CCN5C)C4)CC3)nc12", "note": "[Example 806, 1-(3-(Methylcarbamoyl)-7-(trifluoromethyl)thieno[3,2-b]pyridin-5-yl)piperidin-4-yl 1-methyl-1,6-diazaspiro[3.3]heptane-6-carboxylate]", "values": [{"measurement": "IC50", "setting": "[2]", "value": "< 100", "unit": "nM"}]}
{"smiles": "CNC(=O)c1csc2c(C(F)(F)F)cc(N3CCC(NC(=O)O[C@H]4CCN(C)[C@H]4C)CC3)nc12", "note": "[Example 809, (2S,3S)-1,2-Dimethylpyrrolidin-3-yl (1-(3-(methylcarbamoyl)-7-(trifluoromethyl)thieno[3,2-b]pyridin-5-yl)piperidin-4-yl)carbamate]", "values": [{"measurement": "IC50", "setting": "[2]", "value": "> 1000", "unit": "nM"}]}
{"smiles": "CNC(=O)c1csc2c(C(F)(F)F)cc(N3CCC(NC(=O)OC(C)C)CC3)nc12", "note": "[Example 816, Isopropyl (1-(3-(methylcarbamoyl)-7-(trifluoromethyl)thieno[3,2-b]pyridin-5-yl)piperidin-4-yl)carbamate]", "values": [{"measurement": "IC50", "setting": "[2]", "value": "< 100", "unit": "nM"}]}
{"smiles": "CNC(=O)c1csc2c(C(F)(F)F)cc(O[C@H]3C[C@@H](OC(=O)NC4COC4)C3)nc12", "note": "[Example 822, (+/−)-cis-(1S,3S)-3-((3-(Methylcarbamoyl)-7-(trifluoromethyl)thieno[3,2-b]pyridin-5-yl)oxy)cyclobutyl oxetan-3-ylcarbamate]", "values": [{"measurement": "IC50", "setting": "[2]", "value": "100 to 1000", "unit": "nM"}]}
{"smiles": "CNC(=O)c1csc2c(C(F)(F)F)cc(OC3CCN(C(=O)OC4CN(C)CC4F)CC3)nc12", "note": "(stereo not drawn) [Example 835, 4-Fluoro-1-methylpyrrolidin-3-yl 4-((3-(methylcarbamoyl)-7-(trifluoromethyl)thieno[3,2-b]pyridin-5-yl)oxy)piperidine-1-carboxylate]", "values": [{"measurement": "IC50", "setting": "[2]", "value": "100 to 1000", "unit": "nM"}]}
{"smiles": "CNC(=O)c1csc2c(C(F)(F)F)cc(OC3CC4(C3)CN(C(=O)O[C@@H](C)COC(F)(F)F)C4)nc12", "note": "[Example 853, (S)-1-(Trifluoromethoxy)propan-2-yl 6-((3-(methylcarbamoyl)-7-(trifluoromethyl)thieno[3,2-b]pyridin-5-yl)oxy)-2-azaspiro[3.3]heptane-2-carboxylate]", "values": [{"measurement": "IC50", "setting": "[2]", "value": "< 100", "unit": "nM"}]}
{"smiles": "CNC(=O)c1csc2c(C(F)(F)F)cc(O[C@H]3CCN(C(=O)OC[C@@H](C)OC(F)(F)F)C3)nc12", "note": "[Example 858, (R)-2-(Trifluoromethoxy)propyl (S)-3-((3-(methylcarbamoyl)-7-(trifluoromethyl)thieno[3,2-b]pyridin-5-yl)oxy)pyrrolidine-1-carboxylate]", "values": [{"measurement": "IC50", "setting": "[2]", "value": "< 100", "unit": "nM"}]}
{"smiles": "CNC(=O)c1csc2c(C(F)(F)F)c(C)c(O[C@@H]3CCN(C(=O)O[C@@H](C)C4CC4)[C@H](C)C3)nc12", "note": "[Example 866, (S)-1-Cyclopropylethyl (2R,4R)-2-methyl-4-((6-methyl-3-(methylcarbamoyl)-7-(trifluoromethyl)thieno[3,2-b]pyridin-5-yl)oxy)piperidine-1-carboxylate]", "values": [{"measurement": "IC50", "setting": "[2]", "value": "< 100", "unit": "nM"}]}
